Source: US20220395472A1 (Dermavant Sciences GmbH, priority 2021, published 2022)
Where two headings read alike, the source gives them in different places.

Columns and labels:
[1] = system: adults with plaque psoriasis; experiment: Long-term extension study (PSOARING 3): patient-reported and investigator-assessed Local Tolerability Scale; type: in vivo, human; details: all anatomic regions incl. sensitive areas; 40 weeks
Procedure: Tolerability is defined as the local tolerability using a patient-reported 5-point scale for burning/stinging and itching, and an investigator-assessed 5-point scale for dryness, erythema, and peeling.
Tolerability was assessed subjectively via subject and objectively via Investigator throughout the 40 weeks of the study. The patient-reported local tolerability scale utilized for self-reported tolerability assessment is shown in Table 20, while the investigator-assessed local tolerability scale utilized is shown in Table 21.

[2] = system: adult and adolescent subjects with AD; details: cited from earlier work
[3] = system: adults with plaque psoriasis; experiment: Long-term extension study (PSOARING 3): adverse events; type: in vivo, human
Description: Endpoints: Incidence, frequency, and nature of AEs, adverse events of special interest (AESIs), and serious adverse events (SAEs), Change over time in clinical laboratory tests and frequency of clinically significant abnormal test results, Change over time in vital signs and frequency of clinically significant abnormal results, Local Tolerability Scale (LTS) scores by severity summarized by visit.
Safety assessments included AEs, AESIs, SAEs, local (application site) tolerability, clinical laboratory tests, vital signs, physical examinations, and Investigator assessed LTS. Efficacy assessments included a 5 point static PGA (0 [clear], 1 [almost clear], 2 [mild], 3 [moderate], 4 [severe]), % BSA affected, the PASI, and subject reported DLQI.

[4] = Preclinical repeat-dose systemic exposure; type: in vivo
Description: The reason for the decrease in plasma concentrations over time is unknown. Without wishing to be bound by theory, as the skin heals, there may be less penetration of the drug through the stratum corneum and into the systemic circulation since the barrier is restored.

[5] = system: adults with mild to severe plaque psoriasis; experiment: PSOARING 1 & 2 12-week pivotal phase 3 trials; type: in vivo, human; details: Week 12
Procedure: All secondary endpoints were met, with statistical significance. […] Here, we present further analyses of the DLQI results, including an evaluation of correlations between the DLQI and clinical efficacy as assessed by PGA and Psoriasis Area and Severity Index (PASI) scores in PSOARING 1 & 2.
The DLQI is a 10-item scale where each item rates impact on quality of life (QoL) on a 4-point scale from 0 (not at all) to 3 (very much); lower scores indicate higher QoL. Efficacy was evaluated using PGA and PASI. Spearman rank correlations were used to evaluate correlations between changes from baseline in efficacy and changes from baseline in QoL at Week 12. Analyses used observed cases and were based on the intention-to-treat population.

[6] = final analysis, Tapinarof→Tapinarof
[7] = final analysis, Vehicle→Tapinarof

CC(C)c1c(O)cc(/C=C/c2ccccc2)cc1O [Tapinarof, 3,5-Dihydroxy-4-isopropyl-trans-stilbene]
local tolerability (patient and investigator assessments) [1]: well-tolerated
reported TEAEs ([2]; 1% BID arm): 70%
proportion subjects with ≥75% improvement in EASI ([2]; 1% BID): 60%
Treatment success for IGA (clear or almost clear with minimum 2-point improvement) ([2]; 1% QD arm, Week 8): 49%
proportion subjects with ≥75% improvement in EASI ([2]; 1% QD arm, Week 8): 57%
Treatment success for IGA (clear or almost clear with minimum 2-point improvement) ([2]; 1% QD arm, Week 12): 46%
proportion subjects with ≥75% improvement in EASI ([2]; 1% QD arm, Week 12): 57%
reported TEAEs ([2]; 1% QD arm): 54%
proportion subjects with ≥75% improvement in EASI ([2]; 1% QD): 51%
TEAE incidence: contact dermatitis ([3]; final analysis): 5.5%
TEAE incidence: folliculitis ([3]; final analysis): 22.7%
TEAE incidence: upper respiratory tract infection ([3]; final analysis): 4.7%
discontinuation rate due to contact dermatitis ([3]; final analysis): 1.4%
discontinuation rate due to folliculitis ([3]; final analysis): 1.2%
Study discontinuation due to AESI: Dermatitis contact ([3]; final analysis, Overall): 11 (1.4) n (%)
Study discontinuation due to AESI: Folliculitis ([3]; final analysis, Overall): 9 (1.2) n (%)
Study discontinuation due to AESI: Headache ([3]; final analysis, Overall): 0 n (%)
Study discontinuation due to TEAEs ([3]; final analysis, Overall): 41 (5.4) n (%)
Treatment-emergent AESI: Dermatitis contact ([3]; final analysis, Overall): 45 (5.9) n (%)
Treatment-emergent AESI: Folliculitis ([3]; final analysis, Overall): 183 (24.0) n (%)
Treatment-emergent AESI: Headache ([3]; final analysis, Overall): 15 (2.0) n (%)
Study discontinuation due to AESI: Dermatitis contact [3, 6]: 7 (1.4) n (%)
Study discontinuation due to AESI: Folliculitis [3, 6]: 6 (1.2) n (%)
Study discontinuation due to AESI: Headache [3, 6]: 0 n (%)
Study discontinuation due to TEAEs [3, 6]: 26 (5.1) n (%)
Treatment-emergent AESI: Dermatitis contact [3, 6]: 24 (4.7) n (%)
Treatment-emergent AESI: Folliculitis [3, 6]: 124 (24.4) n (%)
Treatment-emergent AESI: Headache [3, 6]: 10 (2.0) n (%)
Study discontinuation due to AESI: Dermatitis contact [3, 7]: 4 (1.6) n (%)
Study discontinuation due to AESI: Folliculitis [3, 7]: 3 (1.2) n (%)
Study discontinuation due to AESI: Headache [3, 7]: 0 n (%)
Study discontinuation due to TEAEs [3, 7]: 15 (5.9) n (%)
Treatment-emergent AESI: Dermatitis contact [3, 7]: 21 (8.2) n (%)
Treatment-emergent AESI: Folliculitis [3, 7]: 59 (23.1) n (%)
Treatment-emergent AESI: Headache [3, 7]: 5 (2.0) n (%)
study discontinuation rate due to contact dermatitis ([3]; interim): 1.4%
study discontinuation rate due to folliculitis ([3]; interim): 1.2%
Premature discontinuation due to AEs ([3]; interim, Overall): 5.8%
Premature discontinuation due to AEs ([3]; interim, Tapinarof (Pivotal) group): 5.7%
Premature discontinuation due to AEs ([3]; interim, Vehicle (Pivotal) group): 5.9%
systemic exposures with repeat dosing compared to single doses ([4]; minipigs): no changes in systemic exposures
systemic exposures with repeat dosing compared to single doses ([4]; rats): no changes in systemic exposures
PGA response (PGA 0 or 1 and ≥2-grade improvement from baseline) ([5]; PSOARING 1): 35.4%
mean change in DLQI from baseline ([5]; PSOARING 1): ~5.0
patients who achieved a DLQI of 0 or 1 ([5]; PSOARING 1): 47.4%
PGA response (PGA 0 or 1 and ≥2-grade improvement from baseline) ([5]; PSOARING 2): 40.2%
mean change in DLQI from baseline ([5]; PSOARING 2): ~4.7
patients who achieved a DLQI of 0 or 1 ([5]; PSOARING 2): 44.9%
